Test results: patent publication US20080039442A1, “Compounds With Kv4 Ion Channel Activity” (Devgen NV, priority 2004, published 2008)
Where two headings read alike, the source gives them in different places.

Columns and labels:
[1] = biological target: T1, human Kv4.3/KChIP2.2 potassium channel (Homo sapiens, UniProt Q9UK17); test: Whole cell patch clamp, CHO-K1 cells stably expressing Kv4.3/KChIP2.2; type: cell-based; conditions: for remaining activity at 1 µM: CHO-K1
T1 construct: expressed in transfected cells
T1 sequence (Q9UK17 1-655): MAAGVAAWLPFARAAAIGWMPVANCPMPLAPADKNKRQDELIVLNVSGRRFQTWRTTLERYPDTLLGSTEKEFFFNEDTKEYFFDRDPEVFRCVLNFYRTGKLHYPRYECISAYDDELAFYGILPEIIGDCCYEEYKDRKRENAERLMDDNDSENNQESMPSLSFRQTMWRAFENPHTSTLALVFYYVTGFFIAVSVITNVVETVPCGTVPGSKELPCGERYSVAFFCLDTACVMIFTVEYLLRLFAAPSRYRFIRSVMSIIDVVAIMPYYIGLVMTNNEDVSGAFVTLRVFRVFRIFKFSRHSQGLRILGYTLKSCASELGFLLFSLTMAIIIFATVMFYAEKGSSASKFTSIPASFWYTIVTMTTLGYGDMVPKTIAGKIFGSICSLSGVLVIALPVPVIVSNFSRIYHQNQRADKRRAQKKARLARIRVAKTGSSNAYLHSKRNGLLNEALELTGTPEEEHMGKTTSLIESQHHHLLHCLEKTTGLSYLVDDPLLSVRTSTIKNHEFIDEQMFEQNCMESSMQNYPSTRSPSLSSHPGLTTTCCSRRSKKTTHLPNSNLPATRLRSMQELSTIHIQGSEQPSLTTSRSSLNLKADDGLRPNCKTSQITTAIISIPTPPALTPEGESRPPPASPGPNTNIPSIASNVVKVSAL
T1 sequence (Q9NS61 1-270 partner): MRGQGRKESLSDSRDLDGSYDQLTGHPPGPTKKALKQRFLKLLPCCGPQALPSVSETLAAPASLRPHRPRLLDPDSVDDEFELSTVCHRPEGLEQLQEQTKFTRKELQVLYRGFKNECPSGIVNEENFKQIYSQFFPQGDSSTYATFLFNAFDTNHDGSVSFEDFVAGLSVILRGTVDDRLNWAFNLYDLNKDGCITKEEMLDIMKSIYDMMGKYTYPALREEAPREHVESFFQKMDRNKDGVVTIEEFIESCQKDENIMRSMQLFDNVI
Protocol: For this experiment, a recombinant CHO-K1 cell line stably expressing the human Kv4.3/KChIP2.2 potassium channel was used.
Protocol B: The cells were cultured in 94 mm culture dishes under the culturing conditions of 5% CO2 and 37° C. Subculturing was performed every 3-4 days, by removing the media and then rising the dish with 8 ml PBS (phosphate buffered saline). The PBS was removed and 1 ml Trypsin/EDTA was added to the cells. The cells were incubated about 2 min at 37° C. or 5 min at room temperature and then the dish was rapped to detach and singularize the cells. To inactivate the enzyme 9 ml of media was added and the solution was pipetted up and down to break up clumps of cells. Part of the suspension was then transferred to a new 94 mm dish and media was added to a final volume of 8 ml. If necessary the cells could be seeded onto 35 mm or 94 mm dishes (2 ml media per 35 mm dish and 8 ml media per 94 mm dish). The media was changed every 2-3 days. The media used was the solution for culturing the cells described above. For stable cells antibiotic G418, Hygromycin, Blasticidin, or Zeocin were not added.
The preparation of cells for electrophysiological experiments was performed as described in protocol C hereunder.
Protocol C: The transfected cells and stable cells were transferred from 35 mm cell culture dishes onto coverslips using cold PBS: The media was removed and 0.3 ml of PBS (4-10° C.) was added. The cells were incubated 5 min at room temperature. The dish was rapped to detach and singularize the cells and 1.7 ml media was added and the solution pipetted up and down to break up clumps of cells. Part of the cell suspension was then transferred to a 35 mm dish with coverslips and media. The transfected cells and stable cells could also be transferred from 35 mm cell culture dishes onto coverslips using trypsin: The media was removed and the dish rinsed with 3 ml PBS. The PBS was removed and 0.3 ml 1× Trypsin/EDTA was added and the cells incubated 5 min at room temperature. The dish was rapped to detach and singularize the cells and 1.7 ml media was added and the solution pipetted up and down to break up clumps of cells. Part of the cell suspension was then transferred to a 35 mm dish with coverslips and media.
10 mM stock solutions of the compounds were prepared in DMSO. Solutions of the compounds were prepared by dilution of stock solution in bath solution. If the required stock solution volume was theoretically below 1 μl, bath solutions with higher compound concentration were used for dilution. The maximal DMSO concentration during experiments was 0.1% (v/v).
For patch clamp experiments, the following solutions in demineralized water as vehicle were used (concentration in mM).
Bath (external) solution: 4 KCl, 135 NaCl, 2 CaCl2, 1 MgCl2, 10 D(+)-Glucose, 5 HEPES, pH 7.4 (NaOH).
Pipette (internal) solution: 130 KCl, 1 MgCl2, 10 EGTA, 5 Na2ATP, 5 HEPES, pH 7.4 (KOH).
Experiments were performed using a patch clamp set-up.
Measurements were performed at room temperature (20-25° C.). […] Each cell acted as its own control. The effect of compounds on Kv4.3/KChIP2.2 mediated currents was investigated at one concentration ([…]) with two replicates each (c=1, n=2).
The test protocols are illustrated in FIG. 1 and Table 4. […] Each test protocol consisted of 4 segments.
Subsequently, 14 test pulses (series 1; FIG. 1b and Table 4b) were applied at 0.1 Hz under constant superfusion with bath solution. The protocol was initiated by a voltage jump to −100 mV (400 ms) to achieve full inactivation. Then the Kv4.3/KChIP2.2 channels were transferred to the open state by depolarization to +40 mV for 300 milliseconds (activation). Only cells generating current amplitudes between 1 nA and 50 nA were used for the experimental procedure. No or negligible rundown was observed.
Then, 36 test pulses (series 2) were applied at 0.1 Hz under constant superfusion with the compound dissolved in bath solution. […]

hERG potassium channel = hERG potassium channel (Homo sapiens, UniProt Q12809); test: Whole cell patch clamp, HEK 293 T-REx HERG cells
hERG potassium channel, sequence (Q12809 whole entry): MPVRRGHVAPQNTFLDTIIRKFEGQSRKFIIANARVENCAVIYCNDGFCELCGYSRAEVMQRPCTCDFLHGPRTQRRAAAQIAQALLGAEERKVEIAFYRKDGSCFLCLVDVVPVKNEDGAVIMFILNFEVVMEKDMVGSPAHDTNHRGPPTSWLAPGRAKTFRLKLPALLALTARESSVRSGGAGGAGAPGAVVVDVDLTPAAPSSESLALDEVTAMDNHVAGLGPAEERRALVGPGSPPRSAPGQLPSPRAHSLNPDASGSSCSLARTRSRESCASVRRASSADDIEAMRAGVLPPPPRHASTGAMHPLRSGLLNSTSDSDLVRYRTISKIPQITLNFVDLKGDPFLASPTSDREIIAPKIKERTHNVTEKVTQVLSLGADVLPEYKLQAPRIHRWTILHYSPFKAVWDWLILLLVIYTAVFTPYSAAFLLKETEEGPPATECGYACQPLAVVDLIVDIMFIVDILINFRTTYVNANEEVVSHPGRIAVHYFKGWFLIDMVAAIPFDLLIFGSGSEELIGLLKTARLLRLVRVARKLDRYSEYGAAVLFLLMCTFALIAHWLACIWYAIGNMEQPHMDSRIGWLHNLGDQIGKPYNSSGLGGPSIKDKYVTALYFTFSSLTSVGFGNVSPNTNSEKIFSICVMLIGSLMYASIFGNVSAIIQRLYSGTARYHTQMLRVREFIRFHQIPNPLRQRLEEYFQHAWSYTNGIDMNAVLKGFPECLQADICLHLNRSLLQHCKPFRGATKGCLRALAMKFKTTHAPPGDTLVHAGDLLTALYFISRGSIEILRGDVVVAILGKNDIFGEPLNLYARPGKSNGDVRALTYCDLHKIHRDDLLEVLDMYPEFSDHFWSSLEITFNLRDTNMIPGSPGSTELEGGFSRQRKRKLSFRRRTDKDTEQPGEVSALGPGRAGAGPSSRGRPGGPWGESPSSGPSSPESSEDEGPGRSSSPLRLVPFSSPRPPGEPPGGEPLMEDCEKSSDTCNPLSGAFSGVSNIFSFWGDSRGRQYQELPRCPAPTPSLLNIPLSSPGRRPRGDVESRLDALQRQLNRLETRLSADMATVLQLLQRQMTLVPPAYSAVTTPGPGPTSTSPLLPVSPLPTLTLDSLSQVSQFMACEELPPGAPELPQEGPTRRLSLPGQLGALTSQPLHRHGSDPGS

[2] = read-out: Kv4.3 charge in %: remaining current measured after application of the compound and relative to the blank
[3] = read-out: Kv4.3 peak in %: remaining peak height measured after application of the compound and relative to the blank

| Compound | remaining activity at 1 µM [1, 2] [%] | remaining activity at 1 µM [1, 3] [%] | melting point [°C] | IC50 ([1]; Table 12, read-out: Kv4.3 charge IC50) [µM] | hERG (%) (hERG potassium channel; 10 μM) | hERG (%) (hERG potassium channel; at 1 μM) [% at 1 μM] | IC50 (hERG potassium channel) [µM] | Ratio hERG/Kv4.3 (hERG potassium channel; selectivity Kv4.3 vs hERG, patch clamp) |
| --- | --- | --- | --- | --- | --- | --- | --- | --- |
| O=C(c1cc2cc(Cl)ccc2o1)N1CCc2ccccc2C1 [Compound 27, (5-chloro-benzofuran-2-yl)-(3,4-dihydro-1H-isoquinolin-2-yl)-methanone] | 59 | 86 | 127.7 to 129.1 |  |  |  |  |  |
| O=C(NCc1ccc2c(c1)OCO2)c1cc2cc(Cl)ccc2o1 [Compound 92] | 64 | 91 | 144 to 145.9 |  |  | 88 |  |  |
| COc1ccc(CNC(=O)c2cnc3ccccc3c2)c(OC)c1 [Compound 42, quinolin-3-carboxylic acid 2,4-dimethoxy-benzylamide] | 89 | 98 | 136.3 |  |  |  |  |  |
| CC(=O)Oc1ccc(CNC(=O)c2cc3cc(Cl)ccc3o2)cc1 [Compound 33, acetic acid 4-{[(5-chloro-benzofuran-2-carbonyl)-amino]-methyl}-phenyl ester] | 89 | 100 | 162.5 to 164.5 |  |  |  |  |  |
| COc1ccc(CNC(=O)c2cc3c(C(C)=O)ccc(OC)c3o2)c(OC)c1 [Compound 13, 4-acetyl-7-methoxy-benzofuran-2-carboxylic acid 2,4-dimethoxy-benzylamide] | 86 | 99 | 148.2 to 150.3 |  |  |  |  |  |
| COc1ccc(CNC(=O)c2sc3ccc(Cl)cc3c2C)c(OC)c1 [Compound 21] | 50 | 92 | 146.8 to 147.8 |  | 100 |  |  |  |
| CN(CCCN1c2ccccc2CCc2ccccc21)C(=O)c1cc2cc(Cl)ccc2o1 [Compound 4, 5-chloro-benzofuran-2-carboxylic acid [3-(10,11-dihydro-dibenzo[b,f]azepin-5-yl)-propyl]-methyl-amide] |  |  |  | 3.81 |  |  | 20 | 5.2 |
| Cc1cccc(Cl)c1CNC(=O)c1cc2cc(Cl)ccc2o1 [Compound 62, 5-chloro-benzofuran-2-carboxylic acid 2-chloro-6-methyl-benzylamide] | 39 | 86 | 168.3 to 168.7 |  |  |  |  |  |
| O=C(NCc1cccs1)c1cc2cc(Cl)ccc2o1 [Compound 39, 5-chloro-benzofuran-2-carboxylic acid 4-(thiophen-2-ylmethyl)-amide] | 90 | 91 | 148.4 to 149.9 |  |  |  |  |  |
| COc1ccc(CNC(=O)c2cc3ccccc3s2)c(OC)c1 [Compound 32, benzo[b]thiophene-2-carboxylic acid 2,4-dimethoxy-benzylamide] | 75 | 100 | 134.4 to 135.3 |  |  |  |  |  |
| COc1ccc(NC(=O)c2cc3cc(Cl)ccc3o2)c(OC)c1 [Compound 24, 5-chloro-benzofuran-2-carboxylic acid (2,4-dimethoxy-phenyl)-amide] | 85 | 102 | 161.6 to 163.3 |  |  |  |  |  |
| Cc1ccc(CNC(=O)c2cc3cc(Cl)ccc3o2)cc1 [Compound 36, 5-chloro-benzofuran-2-carboxylic acid 4-methyl-benzylamide] | 72 | 89 | 161.9 to 162.9 |  |  |  |  |  |
| O=C(c1cc2cc(Cl)ccc2o1)N1CC=C(c2ccc(F)cc2)CC1 [Compound 93, (5-chloro-benzofuran-2-yl)-[4-(4-fluoro-phenyl)-3,6-dihydro-2H-pyridin-1-yl]-methanone] | 73 | 89 | 111.3 to 116.6 |  |  |  |  |  |

Second part, led by results:

| remaining activity at 1 µM [1, 2] [%] | remaining activity at 1 µM [1, 3] [%] | melting point [°C] | IC50 ([1]; Table 12, read-out: Kv4.3 charge IC50) [µM] | Compound | hERG (%) (hERG potassium channel; 10 μM) | hERG (%) (hERG potassium channel; at 1 μM) [% at 1 μM] | IC50 (hERG potassium channel) [µM] | Ratio hERG/Kv4.3 (hERG potassium channel; selectivity Kv4.3 vs hERG, patch clamp) |
| --- | --- | --- | --- | --- | --- | --- | --- | --- |
| 74 | 97 |  |  | N#CCCN(Cc1ccccc1)C(=O)c1cc2cc(Cl)ccc2o1 [Compound 109, 5-chloro-benzofuran-2-carboxylic acid benzyl-(2-cyano-ethyl)-amide] | 34 |  |  |  |
| 85 | 98 | 60.2 to 60.4 |  | CN(C)CC(NC(=O)c1cc2cc(Cl)ccc2o1)c1ccccc1 (stereo not drawn) [Compound 49, 5-chloro-benzofuran-2-carboxylic acid (2-dimethylamino-1-phenyl-ethyl)-amide] |  |  |  |  |
| 82 | 100 | 190.2 to 190.5 |  | O=C(NC1Cc2ccccc2C1)c1cc2cc(Cl)ccc2o1 [Compound 25, 5-chloro-benzofuran-2-carboxylic acid indan-2-ylamide] |  |  |  |  |
| 89 | 99 | 101 to 101.6 |  | O=C(c1cc2cc(Cl)ccc2o1)N1CCC(c2ccccc2)CC1 [Compound 38, (5-chloro-benzofuran-2-yl)-(4-phenyl-piperidin-1-yl)-methanone] |  |  |  |  |
| 81 | 99 | 187.1 to 188.5 |  | O=C(c1cc2cc(Cl)ccc2o1)N1Cc2ccccc2C1 [Compound 26, (5-chloro-benzofuran-2-yl)-(1,3-dihydro-isoindol-2-yl)-methanone] |  |  |  |  |
| 45 | 80 | 76.9 to 77.3 |  | O=C(OCc1ccccc1)c1cc2cc(Cl)ccc2o1 [Compound 44, 5-chloro-benzofuran-2-carboxylic benzyl ester] | 28 |  |  |  |
| 38 | 86 |  |  | O=C(c1cc2cc(Cl)ccc2o1)N1CCCCC1Cc1ccccc1 (stereo not drawn) [Compound 28, (2-benzyl-piperidin-1-yl)-(5-chloro-benzofuran-2-yl)-methanone] | 6 |  |  |  |
